Holding throughout (type): cell-based, human
For one test, the system named is IRF-2. Briefly: Real-time RT-PCR of transcription factor expression under cytokines (FIG. 22). As to the method:
(§1) The transcription levels of BH and related factors were analyzed by quantitative real-time RT-PCR. Total RNA was extracted from cultured cells using Isogen (Nippon Gene, Tokyo, Japan) in accordance with the manufacturer's protocol. The total RNA was reverse-transcribed to cDNA using SuperScript™ II (Invitrogen, Carlsbad, Calif.). Real-time RT-PCR was carried out with the LightCycler Raid Cycler System using the LightCycler 480 SYBR Green I Master (Roche Diagnostics) in accordance with the manufacturer's protocol. Glyceraldehyde 3-phosphate dehydrogenase (GAPDH) was used as a reference gene. Specificity of the amplified fragments was confirmed by quantitative analysis of melting curves using LightCycler analytical software. The amounts of mRNA were standardized based on the mRNA of GAPDH and finally indicated as a ratio to mRNA of an untreated control.
(§2) An investigation was made of the cytokine-dependent regulation of these transcription factors.
A general note: Quantitative PCR measures a nucleic acid by following its amplification.

The next test deals with IRF-1 mRNA. Described as above. As to the method:
as §1, §2

A further test concerns BH promoter. Description: BH promoter luciferase assay in transfected keratinocytes (FIG. 20B). As to the method: The graphs indicate the effects of cytokines Th1, Th2 and Th17 on BH gene expression. […] The graphs indicate BH promoter activity in cultured keratinocytes in the presence of IFN-γ. Keratinocytes were transfected with pGL3-216 containing intact IRF-1/2 binding sites of BH promoter regions followed by treating for 24 hours with IFN-γ (upper panel). Keratinocytes were transfected with ΔpGL3-616 (IRF-1/2 deletion mutants) followed by treating for 24 hours in the presence or absence of IFN-γ or IL-4 at 10 ng/ml (lower panel). […] Keratinocytes were transfected with siRNA (40 nM) of IRF-1 or IRF-2 followed by culturing for 24 hours, treating with IFN-γ at 10 ng/ml and isolating RNA after further culturing for 24 hours. The panel on the right indicates the silencing effects of IRF-1 and IRF-2.
Keratinocytes were cultured in a 12-well tissue culture plate at a density of 5×10^4 cells/well, and were transfected using FuGene HD Transfection reagent (Roche Diagnostics, Basel, Switzerland) and 1 μg aliquots of each construct. […] Luciferase activity was analyzed using the Dual Luciferase Reporter Assay System (Promega) and Autolumat Plus Luminometer (Berthold Technologies, Bad Wildbad, Germany). […]

A further test relates to BH mRNA. Description: Real-time RT-PCR analysis of BH gene expression under cytokines (Experiment 6, FIG. 20A). The note with it: proliferative keratinocytes, 24 hours, ratio to untreated control. As to the method:
(§3) Normal human epidermal keratinocytes derived from neonatal epidermis (Kurabo, Osaka, Japan) were cultured in EpiLife medium (Cascade Biologics, Portland, Oreg.) containing low-concentration (0.03 mM) calcium and HKGS Growth Supplement (Cascade Biologics). All cells were incubated at 37° C. while supplying 5% CO2 and were used within 4 passages. Cells were collected at 70% confluence, 100% confluence, 2 days after confluence and 2 days after confluence in 2 mM calcium.
as §1
Since BH is an NMF-generating enzyme, it has the potential to be involved in the pathophysiology of AD. Accordingly, an investigation was made of the effects of cytokines Th1, Th2 and Th17 on BH gene expression. […] Similar results were obtained with differentiated keratinocytes (data not shown). A promoter assay was carried out in order to determine the role of IFN-γ in regulation of BH gene expression, and response elements were specified. […] In addition, IRF-1 and IRF-2 gene expression was inhibited using small interfering RNA (siRNA) in order to determine whether or not IRF-1/2 is an essential mediator of IFN-γ-induced down-regulation of BH.

For a further test, the system named is bleomycin hydrolase mRNA. Briefly: Effect of cytokines on bleomycin hydrolase mRNA expression by quantitative PCR (Experiment 5, FIG. 14). The note with it: proliferative stage cultured keratinocytes, incubated 24 hours; IL-4 and TNF-α 0.1-10 ng/ml, IFN-γ 1.0-100 ng/ml. As for the experimental part:
as §3
The expression level of bleomycin hydrolase in keratinocytes was measured by quantitative PCR using the method described below. Measurement was carried out using the Light Cycler 480 (Roche Diagnostics GmbH, Mannheim, Germany), while Light Cycler FastStart DNA Master CYBR Green I was used for the reagent. 0.6 μl aliquots of each of the following bleomycin hydrolase primers and […] of water were added to 10 μl of SYBR Green I master mix to bring to a total volume of 20 μl followed by carrying out 45 cycles of PCR consisting of 15 seconds at 95° C., 20 seconds at 55° C. and 20 seconds at 72° C. The results obtained were corrected by comparing with the results for a housekeeping gene in the form of G3PDH. • Forward primer: […] (SEQ ID NO. 1) • Reverse primer: […] (SEQ ID NO. 2)
IL-4 (final concentration: 0.1, 1.0 or 10 ng/ml), TNF-α (final concentration: 0.1, 1.0 or 10 ng/ml) and IFN-γ (final concentration: 1.0, 10 or 100 ng/ml) were respectively added to proliferative stage cultured keratinocytes, and after incubating for 24 hours, RNA was collected using Isogen. Expression of bleomycin hydrolase mRNA was measured by quantitative PCR. Based on the results shown in FIG. 14, interleukin-4 (IL-4), which is a type of Th2 cytokine, was determined to down-regulate expression of bleomycin hydrolase.

For another test, the system named is MZF-1. Briefly: Real-time RT-PCR of transcription factor expression under cytokines (FIG. 22). As for the experimental part:
as §1, §2

Another test relates to Sp-1. The description is as above. As to the method: as §1, §2
Where [1] appears, read: cultured keratinocytes, concentration not given.

The record followed here is patent US9068228B2, “Method for screening ameliorants of dry skin caused by atopic dermatitis using bleomycin hydrolase activity as indicator” (Shiseido Company, Ltd., priority 2009, dated 2015).

Entries after “also recorded” stand apart in the source; their conditions may differ.

Consider “IFN-γ: Human IFN-γ purchased from Peprotech EC; Th1 cytokine”, for which the “expression of IRF-2” value in the test on IRF-2 (in the presence of IFN-γ) is on record as “up-regulated”. In addition, in the test on IRF-1 mRNA (IFN-γ, dose-dependent), the “expression of IRF-1 mRNA” value was “strongly up-regulates”. For the same substance, the “BH promoter activity after deletion of IRF-1/2 binding sequence” value with BH promoter (keratinocytes transfected with IRF-1/2 deletion mutant, 10 ng/ml, 24 hours) is on record as “no longer inhibited”. Moreover, the BH promoter activity entry in the test on BH promoter (proliferative keratinocytes transfected with pGL3-BH-616 containing IRF-1/2 binding sequence, IFN-γ 24 hours) was “down-regulated”. Further, the “expression of BH mRNA” value with BH mRNA is “down-regulated; also recorded: remarkably decreased”; in the test on BH mRNA (listed as IFN) it was “significantly decreased”. Further, in the test on bleomycin hydrolase mRNA, the “expression of bleomycin hydrolase mRNA” value is reported as “significantly increases”.
Consider “IL-4: Human IL-4 purchased from Peprotech EC; Th2 cytokine”, for which the figures for the “expression of MZF-1” value in the test with MZF-1 (IL-4 at 10 ng/ml) and in the test on MZF-1 (setting [1]) were “most effectively down-regulated” and “significantly inhibited; also recorded: down-regulated”, respectively. In addition, the “expression of IRF-2” value with IRF-2 (IL-4 at 100 ng/ml only) is given as “significantly enhanced”. Further, the “expression of IRF-1” value in the test with IRF-1 mRNA (IL-4 at 100 ng/ml only) is reported as “significantly enhanced”. Moreover, the “expression of Sp-1” value is reported as “most effectively down-regulated” in the test with Sp-1 (IL-4 at 10 ng/ml) and “significantly inhibited; also recorded: down-regulated” with Sp-1 (setting [1]). Besides, in the test on BH mRNA, the “expression of BH mRNA” value is on record as “did not demonstrate any direct action whatsoever”. In addition, in the test with bleomycin hydrolase mRNA, the “expression of bleomycin hydrolase mRNA” value was “down-regulates”.
Regarding “IL-13: Human IL-13 produced by R&D Systems Inc.; Th2 cytokine”, the “expression of MZF-1” value with MZF-1 (setting [1]) is recorded as “significantly inhibited”. Besides, the “expression of Sp-1” value in the test with Sp-1 (setting [1]) was “significantly inhibited”. Besides, the “expression of BH mRNA” value in the test with BH mRNA is reported as “did not demonstrate any direct action whatsoever”.
In the case of TNF-α, the “expression of bleomycin hydrolase mRNA” value with bleomycin hydrolase mRNA is listed as “significantly increases”.
